Results on 18 molecules are retold here after patent US9447122B2, “Arginase inhibitors and methods of use thereof” (AstraZeneca AB, priority 2010, dated 2016).

Molecules are shown by their SMILES. Structures can show the parent of a compound that is named as a salt. Where two headings read alike, the source gives them in different places. Where only a bound is given, the exact number is not on record here.

Test [1] has as its system Arg I and/or Arg II. The test is described as follows: pH effect: inhibitory potency at pH 7.5 compared with pH 9.5. Type of test: biochemical, human. To be noted: for increased potency for at least one isozyme: Table 2, pH 7.5 vs pH 9.5; for potency at pH 7.5 as compared to pH 9.5, arginases: both or at least one of the arginases. The procedure:
(§1) For some compounds, their inhibitory potency at pH 7.5 was compared to the inhibitory potency of ABH at pH 7.5.
The rate of urea production was measured in the presence of twelve different concentrations of each potential inhibitor compound. In a typical assay, seven different compounds were tested relative to a control inhibitor (e.g. ABH) against one enzyme (either human ArgI or human ArgII) at a particular pH (either 9.5 or 7.5). The pH of the solution was controlled using an appropriate pH buffering compound at 60 mM concentrations; for example, 60 mM glycine (pH 9.5) or 60 mM HEPES (pH 7.5). The half maximal inhibitory concentration (IC50) was determined by constructing a dose-response curve. As IC50 values are dependent upon the measurement conditions, the IC50 values were converted to the inhibitor binding affinity (K1) using the Cheng-Prusoff equation and the affinity constant (Km) of L-arginine which was estimated with the same activity assay (see, e.g., Cheng et al., 1973, Biochem. Pharmacol. 22:3099-108).

Test [2] has as its target T1, human arginase II (Homo sapiens, UniProt P78540).
T1 sequence (P78540 23-354): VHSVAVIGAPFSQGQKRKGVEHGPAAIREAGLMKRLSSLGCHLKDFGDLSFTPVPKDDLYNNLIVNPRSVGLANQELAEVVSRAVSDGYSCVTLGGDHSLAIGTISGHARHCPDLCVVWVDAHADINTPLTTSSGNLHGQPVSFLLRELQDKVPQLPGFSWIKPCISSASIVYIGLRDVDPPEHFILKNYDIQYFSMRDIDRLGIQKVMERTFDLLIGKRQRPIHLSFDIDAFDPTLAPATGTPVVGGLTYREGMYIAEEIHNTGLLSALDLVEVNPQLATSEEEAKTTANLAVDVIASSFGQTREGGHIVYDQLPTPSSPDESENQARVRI
The experiment in a line: Arginase inhibition, QuantiChrom colorimetric urea assay, IC50 converted to Ki. Type of test: biochemical. The procedure: as §1
(§2) Quantitative determination of arginase activity was performed in a 96-well format by a colorimetric method using the QuantiChrom™ Arginase Assay Kit available from BioAssay Systems (Hayward, Calif., Catalog No. DARG-200) according to the manufacturer's protocol. Modifications were made to reagent quantities to suit the assaying of a highly purified sample.
(§3) The intensity of the color was directly proportional to the arginase activity in the sample.
(§4) The rate of urea production was measured in the presence of twelve different concentrations of each potential inhibitor compound. In a typical assay, seven different compounds were tested relative to a control inhibitor (e.g. ABH) against one enzyme (either human ArgI or human ArgII) at a particular pH (either 9.5 or 7.5). The pH of the solution was controlled using an appropriate pH buffering compound at 60 mM concentrations; for example, 60 mM glycine (pH 9.5) or 60 mM HEPES (pH 7.5). The half maximal inhibitory concentration (IC50) was determined by constructing a dose-response curve.

Test [3] deals with T2, human arginase I (Homo sapiens, UniProt P05089).
T2 sequence (P05089 1-322): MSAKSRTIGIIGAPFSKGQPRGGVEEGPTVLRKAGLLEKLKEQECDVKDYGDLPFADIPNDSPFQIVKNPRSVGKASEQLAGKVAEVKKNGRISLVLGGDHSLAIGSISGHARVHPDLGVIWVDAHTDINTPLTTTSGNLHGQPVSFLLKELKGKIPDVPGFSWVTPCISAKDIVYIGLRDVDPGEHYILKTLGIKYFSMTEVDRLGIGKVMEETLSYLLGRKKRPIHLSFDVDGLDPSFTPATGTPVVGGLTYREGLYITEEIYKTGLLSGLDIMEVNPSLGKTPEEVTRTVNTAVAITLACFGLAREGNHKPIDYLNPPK
The description is as above. Type of test: biochemical. The protocol: as §1, §2, §3, §4

Where [4] appears, read: Table 2, pH 7.5, read-out: human arginase II pH 7.5, Ki assigned value.
The mark [5] stands for this setting: Table 2, pH 9.5, read-out: human arginase II pH 9.5, Ki assigned value.
The mark [6] stands for this setting: Table 2, pH 7.5, read-out: human arginase I pH 7.5, Ki assigned value.
Setting [7] is: Table 2, pH 9.5, read-out: human arginase I pH 9.5, Ki assigned value.
Setting [8] is: Table 3, pH 7.5, read-out: human Arginase II pH 7.5, Ki assigned value.
The mark [9] stands for this setting: Table 3, pH 9.5, read-out: human Arginase II pH 9.5, Ki assigned value.
Setting [10] is: Table 3, pH 7.5, read-out: human Arginase I pH 7.5, Ki assigned value.
The mark [11] stands for this setting: Table 3, pH 9.5, read-out: human Arginase I pH 9.5, Ki assigned value.

As for `NC(CCCCB(O)O)(CCCC1CCNCC1)C(=O)O` (stereo not drawn) [Comparative Example 1, reference compound], the “increased potency for at least one isozyme” value in test [1] is “no ^b”. In test [1], the “potency at pH 7.5 as compared to pH 9.5, arginases” value is given as “lower potencies”. Moreover, the Ki was over 400 nM in test [2] (setting [4]), under 10 nM in test [2] (setting [5]), 101 to 250 nM in test [3] (setting [6]) and 11 to 50 nM in test [3] (setting [7]).
Regarding `NC(CCCCB(O)O)(CCCN1CCN(C(=O)c2ccc(Cl)c(Cl)c2)CC1)C(=O)O` (stereo not drawn) [Example 129, 2-amino-6-borono-(3-(4-(3,4-dichlorobenzoyl)piperazine-1-yl)propyl)hexanoic acid], the “selectivity for arginase I over arginase II” value in test [1] (at pH 7.5 / lower pHs) is recorded as “selectivity for arginase I over arginase II”. The Ki in test [2] (setting [8]) lay in the range of 251 to 400 nM; in test [2] (setting [9]) it was 51 to 100 nM; in test [3] (setting [10]), 11 to 50 nM; in test [3] (setting [11]), 51 to 100 nM.
Regarding `NC(CCCCB(O)O)(CCCC1CCN(Cc2ccc(F)cc2)CC1)C(=O)O` (stereo not drawn) [Comparative Example 3, reference compound], the “increased potency for at least one isozyme” value in test [1] is on record as “no ^b”. The “potency at pH 7.5 as compared to pH 9.5, arginases” value in test [1] is “decreased potencies”. In addition, the Ki in test [2] (setting [4]) is 251 to 400 nM; in test [2] (setting [5]), 11 to 50 nM; in test [3] (setting [6]) it was 251 to 400 nM; in test [3] (setting [7]), 11 to 50 nM.
In the case of `NC(CCCCB(O)O)(CCCN1CCNCC1)C(=O)O` (stereo not drawn) [Comparative Example 4, 2-Amino-6-borono-2-(3-(piperazine-1-yl)propyl)hexanoic acid trifluoroacetate salt, reference compound], the “increased potency for at least one isozyme” value in test [1] is on record as “yes ^a”. The inhibitory constant (Ki) in test [2] (setting [4]) is over 400 nM; in test [2] (setting [5]), 11 to 50 nM; in test [3] (setting [6]), 11 to 50 nM; in test [3] (setting [7]), 51 to 100 nM. The “change of human arginase I inhibitory potency” value in test [3] (pH decreased from 9.5 to 7.5) is “increased potency”.
Turning to `NC(CCCCB(O)O)(CCCN1CCN(c2ccc(Cl)c(Cl)c2)CC1)C(=O)O` (stereo not drawn) [Example 16], the Ki was 51 to 100 nM in test [2] (setting [8]), 11 to 50 nM in test [2] (setting [9]), 11 to 50 nM in test [3] (setting [10]) and 51 to 100 nM in test [3] (setting [11]).
Turning to `NC(CCCCB(O)O)(CCCC1CCN(Cc2ccc(Cl)c(Cl)c2)CC1)C(=O)O` (stereo not drawn) [Comparative Example 2, reference compound], in test [1], the “increased potency for at least one isozyme” value was “no ^b”. In addition, the “potency at pH 7.5 as compared to pH 9.5, arginases” value in test [1] is “decreased potencies”. Moreover, the inhibition constant Ki in test [2] (setting [4]) was 101 to 250 nM; in test [2] (setting [5]), 11 to 50 nM; in test [3] (setting [6]) it was 101 to 250 nM; in test [3] (setting [7]), 11 to 50 nM.
`NC(CCCCB(O)O)(CCCN1CCN(Cc2cccc(F)c2F)CC1)C(=O)O` (stereo not drawn) [Example 7]: the Ki in test [2] (setting [8]) is 11 to 50 nM; in test [2] (setting [9]) it was 51 to 100 nM; in test [3] (setting [10]), under 10 nM; in test [3] (setting [11]), 11 to 50 nM.
Take `NC(CCCCB(O)O)(CCCN1CCC(Cc2ccc(F)c(F)c2)CC1)C(=O)O` (stereo not drawn) [Example 28]: the Ki is 51 to 100 nM in test [2] (setting [4]), under 10 nM in test [2] (setting [5]), under 10 nM in test [3] (setting [6]) and under 10 nM in test [3] (setting [7]).
`NC(CCCCB(O)O)(CCCN1CCN(Cc2cccc(C(F)(F)F)c2)CC1)C(=O)O` (stereo not drawn) [Example 9]: the Ki was 11 to 50 nM in test [2] (setting [8]), 11 to 50 nM in test [2] (setting [9]), under 10 nM in test [3] (setting [10]) and 51 to 100 nM in test [3] (setting [11]).
As to `NC(CCCCB(O)O)(CCCN1CCCC1)C(=O)O` (stereo not drawn) [Example 56], the Ki in test [2] (setting [8]) fell in the range of 51 to 100 nM; in test [2] (setting [9]), 101 to 250 nM; in test [3] (setting [10]), 11 to 50 nM; in test [3] (setting [11]) it was 11 to 50 nM.
For `NC(CCCCB(O)O)(CCCN1CCC(O)(Cc2ccccc2)CC1)C(=O)O` (stereo not drawn) [Example 39], the Ki in test [2] (setting [8]) was under 10 nM; in test [2] (setting [9]), 11 to 50 nM; in test [3] (setting [10]), under 10 nM; in test [3] (setting [11]), under 10 nM.
Consider `NC(CCCCB(O)O)(CCCN1CCC2(CC1)C(=O)NCN2c1ccccc1)C(=O)O` (stereo not drawn) [Example 31], for which the Ki was under 10 nM in test [2] (setting [8]), 51 to 100 nM in test [2] (setting [9]), under 10 nM in test [3] (setting [10]) and 11 to 50 nM in test [3] (setting [11]).
Take `NC(CCCCB(O)O)(CCCN1CCSCC1)C(=O)O` (stereo not drawn) [Example 65]: the Ki was 11 to 50 nM in test [2] (setting [8]), over 400 nM in test [2] (setting [9]), 11 to 50 nM in test [3] (setting [10]) and 51 to 100 nM in test [3] (setting [11]).
For the molecule `CN(CCCC(N)(CCCCB(O)O)C(=O)O)CCc1ccccc1` (stereo not drawn) [Example 68], the Ki in test [2] (setting [8]), in test [2] (setting [9]), in test [3] (setting [10]) and in test [3] (setting [11]) was 11 to 50 nM each time.
With `NC(CCCCB(O)O)(CCCN1CCC(C(=O)c2ccc(F)cc2)CC1)C(=O)O` (stereo not drawn) [Example 101], the Ki in test [2] (setting [8]) was under 10 nM; in test [2] (setting [9]) it was 11 to 50 nM; in test [3] (setting [10]), under 10 nM; in test [3] (setting [11]) it was 11 to 50 nM.
Turning to `NC(CCCCB(O)O)(CCCN1CCCC1c1ccccc1C(F)(F)F)C(=O)O` (stereo not drawn) [Example 51], the Ki fell in the range of 11 to 50 nM in test [2] (setting [8]), 101 to 250 nM in test [2] (setting [9]), 11 to 50 nM in test [3] (setting [10]) and 51 to 100 nM in test [3] (setting [11]).
Turning to `NC(CCCCB(O)O)(CCN1CCN(Cc2ccc(Cl)c(Cl)c2)CC1)C(=O)O` (stereo not drawn) [Example 15], the Ki in test [2] (setting [8]) was over 400 nM; in test [2] (setting [9]), 51 to 100 nM; in test [3] (setting [10]) it was 101 to 250 nM; in test [3] (setting [11]), 101 to 250 nM.
Regarding `COc1ccc(C2CCN(CCCC(N)(CCCCB(O)O)C(=O)O)CC2)cc1` (stereo not drawn) [Example 37], the inhibition constant Ki in test [2] (setting [8]) was under 10 nM; in test [2] (setting [9]), 11 to 50 nM; in test [3] (setting [10]), under 10 nM; in test [3] (setting [11]) it was under 10 nM.

One may read the Ki as a dissociation constant, usually derived from enzyme kinetics or from competition with a known ligand.
